Assay results published in patent US6699877B2 (Gruenenthal GmbH, priority 2000, dated 2004).

How the values were obtained:
[1] = test system: formalin-induced nociception; assay: Formalin test, rat (second/late phase); assay type: in vivo; conditions: i.p., 21.5 mg/kg, late phase
Experimental: Experiments to determine the antinociceptive activity of the compounds according to the invention of Formula I were carried out in the formalin test on male rats (Sprague-Dawley, 150-170 g).
In the formalin test, the first (early) phase (0-15 min after formalin injection) was distinguished from the second (late) phase (15-60 min after formalin injection) (D. Dubuisson, S. G. Dennis, Pain 4, 161-174 (1977)). The early phase, as a direct reaction to the formalin injection, represents a model for acute pain while the late phase is considered as a model for persistent (chronic) pain (T. J. Coderre, J. Katz, A. L. Vaccarino, R. Melzack, Pain, Vol. 52, p. 259,1993).
The compounds according to the invention were investigated in the second phase of the formalin test to obtain information about the effects of substances in chronic/inflammatory pain.
A nociceptive reaction was induced in freely moving experimental animals by a single subcutaneous formalin injection (50 μl, 5%) into the dorsal side of the back right paw, the nociceptive reaction being portrayed by the following behavioral parameters: lifting and holding the respective paw (Score 1), shaking and twitching (Score 2), licking and biting (Score 3). The different behavioral patterns triggered by the formalin injection were recorded continuously by observing the animals in the late phase of the formalin test and were weighted differently in an evaluation. Normal behavior in which the animal loads all four paws uniformly was recorded as score 0. The moment of administration prior to the formalin injection was selected according to the method of administration of the compounds according to the invention (intraperitoneal: 15 min, intravenous: 5 min). The described behavioral patterns (Score 1 to 3) in the animals are reduced and possibly even eliminated after injection of substances which have an antinociceptive effect in the formalin test. A comparisom was made with control animals which had received vehicles (solvents) prior to formalin administration. The nociceptive behavior was calculated as a so-called pain rate (PR). The various behavioral parameters received a different weighting (Factor 0, 1, 2, 3). Calculation took place at partial intervals of 3 min according to the following formula:
Substance and vehicle groups include n=10 animals in each case. The effect of the substance was determined as a percentage change versus control on the basis of the PR calculations. The ED50 calculations were made by regression analysis.

[2] = target: T1, glycine binding site of the NMDA receptor channel (Rattus norvegicus, UniProt P35439); assay: Receptor binding, displacement of (3H)-MDL 105.519 on rat cerebral membrane homogenates; conditions: 1 nmol/l (3H)-MDL 105.519
T1 construct: from tissue; host or cells: rat brain cortex and hippocampus membrane homogenate
Experimental: Receptor Binding (Glycine Binding Site of the NMDA Receptor Channel)
Experiments to determine the affinity of the compounds according to the invention of Formula I to the glycine binding site of the NMDA receptor channel were carried out on cerebral membrane homogenates (homogenate of Cortex- and Hippocampus-Areal from the brain of male rats, Wistar strain) (B. M. Baron, B. W. Siegel, B. L. Harrison, R. S. Gross, C. and P. Towers, Journal of Pharmacology and Experimental Therapeutics, Vol. 279, p. 62, 1996).
For this purpose, Cortex and Hippocampus from freshly removed rats' brains were dissected, homogenized in 5 mmol/l TRIS-acetate buffer, 0.32 mol/l sacharose pH 7.4 (10 ml/g fresh weight) with a Potter homogenizer (made by Braun/Melsungen, 10 piston strokes at 500 rpm) while cooling with ice and subsequently centrifuged for 10 minutes at 1,000 g and 4° C. The first supernatant material was collected and the sediment homogenized again with […] TRIS-acetate buffer, 0.32 mol/l safcharose pH 7.4 (5 ml/g original fresh weight) using the Potter homogenizer (10 piston strokes at 500 rpm) while cooling with ice and centrifuged for 10 minutes at 1,000 g and 4° C. The resultant supernatant material was combined with the supernatant material from the first centrifugation and centrifuged at 17,000 g for 20 minutes at 4° C. The supernatant material after this centrifugation was discarded, the membrane sediment taken up with 5 mmol/l TRIS-acetate buffer pH 8.0 (20 ml/g original fresh weight) and homogenized with 10 piston strokes at 500 rpm.
The membrane homogenate was then incubated for 1 hour at 4° C. and centrifuged for 30 minutes at 50,000 g and 4° C. The supernatant material was discarded and the centrifuge tube with the membrane sediment sealed with parafilm and frozen for 24 hours at −20° C. The membrane sediment was thawed on the following day, taken up with ice-cold 5 mmol/l TRIS-acetate buffer, 0.1% saponin (w/v) pH 7.0 (10 ml/g original fresh weight), homogenized with 10 piston strokes at 500 rpm and subsequently centrifuged for 20 minutes at 50,00 g and 4° C. The resultant supernatant material was discarded, the sediment taken up in a small volume with 5 mmol/l TRIS-acetate buffer pH 7.0 (about 2 ml/g original fresh weight) and homogenized again with 10 piston strokes at 500 rpm. After determining the protein content, the membrane homogenate was adjusted to a protein concentration of 10 mg protein/ml using 5 mmol/l TRIS-acetate buffer pH 7.0 and frozen in aliquots for testing.
For the receptor binding test, aliquots were thawed, diluted 1:10 with 5 mmol/l TRIS-acetate buffer pH 7.0, homogenized with 10 piston strokes at 500 rpm using the potter homogenizer (10 piston strokes at 500 rpm) while cooling with ice and centrifuged for 60 minutes at 55,000 g at 4° C. The supernatant material was decanted, the membrane sediment adjusted to a protein concentration of 1 mg/ml with ice-cold 50 mmol/l TRIS-acetate buffer pH 7.0, homogenized again with 10 piston strokes at 500 rpm and kept in suspension in the ice bath while stirring on a magnetic stirrer. 100 μl of this membrane homogenate per 1 ml of feedstock was used in each case in the receptor binding test (0.1 mg protein/ml in the final batch).
In the binding test, 50 mmol/l TRIS-acetate buffer pH 7.0 was used as buffer and 1 nmol/l (^3H)-MDL 105.519 (B. M. Baron et al 1996) was used as radioactive ligand. The proportion of unspecific binding was determined in the presence of 1 mmol/l glycine.
In further batches, the compounds according to the invention were added in concentration series and the displacement of the radioactive ligand from its specific binding to the glycine binding site of the NMDA receptor channel determined. The respective triple batches were incubated for 120 minutes at 4° C. and then harvested to determine the radioactive ligands bound to the membrane homogenate by filtration through glass fiber filter mats (GF/B). […]

Structure (SMILES): O=C(O)C1Nc2cc(Cl)cc(Cl)c2C2C=CCC12 (stereo not drawn) [Example 2, 7,9-dichloro-3a,4,5,9b-tetrahydro-3H-cyclopenta[c]quinoline-4-carboxylic Acid]
- % inhibition of formalin-induced nociception [1]: 64.5%
- inhibition at 10 µM ([2]; 10 μmol/l test substance, read-out: Displacement (%, 10 μmol/l) of radioactive ligand from specific binding): 100%
- Ki ([2]; mean from three independent experiments, from IC50 by Cheng-Prussoff equation): 300 nM
